Data published in patent US20240150365A1 (Hotspot Therapeutics, Inc., priority 2022, published 2024).

Key:
[1] = target: T1, MALT1 (Homo sapiens, UniProt Q9UDY8); assay: MALT-1 Fluorogenic Peptide Cleavage Assay (MALT1 inhibition assay); type: biochemical; settings: Avi-tagged FL MALT-1, Ac-LRSR-AMC peptide substrate, 30 min pre-incubation, 90 min reaction
T1 construct: Avi-tagged FL MALT-1 (Pharmaron, stored at −70° C.); Avi tag
T1 sequence (Q9UDY8 1-824): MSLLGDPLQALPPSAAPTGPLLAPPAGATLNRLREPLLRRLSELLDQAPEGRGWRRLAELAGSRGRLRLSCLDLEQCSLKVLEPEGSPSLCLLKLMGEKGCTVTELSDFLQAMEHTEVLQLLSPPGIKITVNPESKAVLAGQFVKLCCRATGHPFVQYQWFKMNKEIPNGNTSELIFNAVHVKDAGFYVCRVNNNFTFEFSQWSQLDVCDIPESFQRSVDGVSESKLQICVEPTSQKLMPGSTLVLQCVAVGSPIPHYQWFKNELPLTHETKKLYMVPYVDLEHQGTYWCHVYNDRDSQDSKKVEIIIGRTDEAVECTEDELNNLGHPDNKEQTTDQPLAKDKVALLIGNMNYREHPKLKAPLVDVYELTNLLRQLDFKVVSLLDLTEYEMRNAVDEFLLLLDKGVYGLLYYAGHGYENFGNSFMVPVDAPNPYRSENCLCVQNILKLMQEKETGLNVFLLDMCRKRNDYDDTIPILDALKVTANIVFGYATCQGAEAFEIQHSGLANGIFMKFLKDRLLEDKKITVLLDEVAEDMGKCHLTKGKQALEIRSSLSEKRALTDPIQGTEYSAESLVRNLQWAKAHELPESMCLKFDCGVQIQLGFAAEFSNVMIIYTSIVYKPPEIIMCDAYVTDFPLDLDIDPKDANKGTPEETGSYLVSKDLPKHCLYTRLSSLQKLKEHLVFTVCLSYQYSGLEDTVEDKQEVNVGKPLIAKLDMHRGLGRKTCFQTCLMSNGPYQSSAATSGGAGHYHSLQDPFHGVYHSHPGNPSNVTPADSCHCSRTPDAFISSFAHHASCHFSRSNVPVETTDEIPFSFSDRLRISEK
Method in brief: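 Avi-tagged full-length MALT1 pre-incubated 30 min with compound (2% DMSO final), then cleavage of Ac-LRSR-AMC followed over 90 min at room temperature. AMC fluorescence read at 342/441 nm; % inhibition fitted to sigmoidal curves for IC50.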

[2] = test system: NF-kB; assay: NF-kB reporter assay in Jurkat cells stimulated with aCD3/aCD28/PMA; type: cell-based; settings: Homo sapiens, Jurkat, Jurkat cells, 1 hr compound incubation, aCD3/aCD28/PMA stimulation 4 hr, One-Glo readout; read-out: NF-kB Reporter Assay IC50
Method in brief: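 Jurkat cells (25,000/well, serum-free RPMI 1640) preincubated 1 hr at 37° C with serially diluted compound, then stimulated with aCD3/aCD28/PMA (final 5 μg/mL, 5 μg/mL, 0.03 μg/mL) for 4 hr. Reporter luminescence read with One-Glo; IC50 derived.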

Structure (SMILES) | IC50 [1] [nM] | IC50 [2] [nM]
Cn1nc(-c2ccc(S(=O)(=O)Nc3cccc4cnn(C)c34)cn2)c2c1CCOC2 [Example I-306, 6-(1-methyl-1,4,6,7-tetrahydropyrano[4,3-c]pyrazol-3-yl)-N-(1-methyl-1H-indazol-7-yl)pyridine-3-sulfonamide] | > 2500 | < 400
COc1ccc2cnn(C)c2c1NS(=O)(=O)c1ccc(-c2nn(C)c3c2COCC3)nc1 [Example I-307] | > 2500 | 400 to 1000
Cn1ncc2cccc(NS(=O)(=O)c3ccc(-c4cnc5n4CCOC5)nc3)c21 [Example I-309, 6-(5,6-dihydro-8H-imidazo[2,1-c][1,4]oxazin-3-yl)-N-(1-methyl-1H-indazol-7-yl)pyridine-3-sulfonamide] | > 2500 | < 400
COc1ccc2cnn(C)c2c1NS(=O)(=O)c1ccc(-c2cnn3c2COCCC3)nc1 [Example I-310, 6-(7,8-dihydro-4H,6H-pyrazolo[5,1-c][1,4]oxazepin-3-yl)-N-(6-methoxy-1-methyl-1H-indazol-7-yl)pyridine-3-sulfonamide] | > 2500 | > 2500
COc1ncc2cnn(C)c2c1NS(=O)(=O)c1ccc(-c2cnn3c2COCCC3)nc1 [Example I-311] | > 2500 | > 2500
Cn1ncc2cccc(NS(=O)(=O)c3ccc(-c4cnn5c4COCCC5)nc3)c21 [Example I-313] | > 2500 | < 400
CN1CCn2ncc(-c3ccc(S(=O)(=O)Nc4cccc5cnn(C)c45)cn3)c2C1 [Example I-314, 6-{5-methyl-4H,6H,7H-pyrazolo[1,5-a]pyrazin-3-yl}-N-(1-methylindazol-7-yl)pyridine-3-sulfonamide] | > 2500 | 1000 to 2500
COc1ccc2cnn(C)c2c1NS(=O)(=O)c1ccc(-c2cnn3c2CN(C)CC3)nc1 [Example I-315] | > 2500 | > 2500

Now from value to compound:

IC50 [1] [nM] | IC50 [2] [nM] | Structure (SMILES)
< 400 | 400 to 1000 | COc1ncc2cnn(C)c2c1NS(=O)(=O)c1ccc(-n2nc(C(F)(F)F)c3c2CCOC3)nc1 [Example I-300, N-(6-methoxy-1-methyl-1H-pyrazolo[4,3-c]pyridin-7-yl)-6-(3-(trifluoromethyl)-6,7-dihydropyrano[4,3-c]pyrazol-1(4H)-yl)pyridine-3-sulfonamide]
1000 to 2500 | 1000 to 2500 | COc1ncc2cnn(C)c2c1NS(=O)(=O)c1ccc(-c2cnn3c2COCC3)nc1 [Example I-301]
> 2500 | < 400 | Cn1ncc2cccc(NS(=O)(=O)c3ccc(-c4cnn5c4OCCC5)nc3)c21 [Example I-302, N-(1-methylindazol-7-yl)-6-{5H,6H,7H-pyrazolo[3,2-b][1,3]oxazin-3-yl}pyridine-3-sulfonamide]
> 2500 | 400 to 1000 | COc1ccc2cnn(C)c2c1NS(=O)(=O)c1ccc(-c2cnn3c2OCCC3)nc1 [Example I-303, 6-(6,7-dihydro-5H-pyrazolo[5,1-b][1,3]oxazin-3-yl)-N-(6-methoxy-1-methyl-1H-indazol-7-yl)pyridine-3-sulfonamide]
< 400 | < 400 | COc1ccc2cnn(C)c2c1NS(=O)(=O)c1ccc(-n2nc(C(F)(F)F)c3c2CCOC3)nc1 [Example I-304, N-(6-methoxy-1-methyl-1H-indazol-7-yl)-6-(3-(trifluoromethyl)-6,7-dihydropyrano[4,3-c]pyrazol-1(4H)-yl)pyridine-3-sulfonamide]
> 2500 | 400 to 1000 | COc1ncc2cnn(C)c2c1NS(=O)(=O)c1ccc(-c2nn(C)c3c2COCC3)nc1 [Example I-305]
1000 to 2500 | < 400 | COc1ccc2cnn(C)c2c1NS(=O)(=O)c1ccc(-c2cnn3c2COCC3)nc1 [Example I-308]
1000 to 2500 | 400 to 1000 | COc1ccc2cnn(C)c2c1NS(=O)(=O)c1ccc(-c2cnc3n2CCOC3)nc1 [Example I-312, 6-(5,6-dihydro-8H-imidazo[2,1-c][1,4]oxazin-3-yl)-N-(6-methoxy-1-methyl-1H-indazol-7-yl)pyridine-3-sulfonamide]
< 400 | < 400 | [2H]C([2H])([2H])Oc1ccc2cnn(C([2H])([2H])[2H])c2c1NS(=O)(=O)c1ccc(-n2cc(C(F)(F)F)cn2)nc1 [Example I-316, N-(6-(methoxy-d3)-1-(methyl-d3)-1H-indazol-7-yl)-6-(4-(trifluoromethyl)-1H-pyrazol-1-yl)pyridine-3-sulfonamide]
